The results in this text go back to patent US4156724A, “N-acylamino-alpha-arylacetamido cephalosporins and antibacterial compositions and methods containing them” (Sumitomo Chemical Company, Limited, priority 1974, dated 1979).

What all share (assay type): cell-based
Experiment [1] deals with Enterobacter aerogeneus No. 75. The experiment can be described thus: Minimum Inhibitory Concentration, Enterobacter aerogeneus No. 75. To be noted: Enterobacter aerogeneus No. 75; read-out: Minimum Inhibitory Concentration. On the procedure: (§1) anti-microbial activity tests were carried out on the compounds obtained in the Examples.
For experiment [2], the system named is Staphylococcus aureus FS 289. Briefly: Minimum Inhibitory Concentration, Staphylococcus aureus FS 289. To be noted: FS289; Staphylococcus aureus FS 289, strain resistant to penicillin; read-out: Minimum Inhibitory Concentration. How it is done: as §1
*Staphylococcus aureus FS 289: strain resistant to penicillin

For another experiment, the system named is Serratia No. 72. The experiment can be described thus: Minimum Inhibitory Concentration, Serratia No. 72. On the procedure: as §1
Experiment [3] deals with Staphylococcus aureus 209 P. The experiment can be described thus: Minimum Inhibitory Concentration, Staphylococcus aureus 209 P. To be noted: Staphylococcus aureus 209 P; read-out: Minimum Inhibitory Concentration. On the procedure: as §1
The next experiment deals with Escherichia coli NIHJ. The experiment can be described thus: Minimum Inhibitory Concentration, Escherichia coli NIHJ. The settings on record: Escherichia coli NIHJ; read-out: Minimum Inhibitory Concentration. On the procedure:
as §1

For experiment [4], the system named is Klebsiella pneumoniae 602. The experiment can be described thus: Minimum Inhibitory Concentration, Klebsiella pneumoniae 602. To be noted: Klebsiella pneumoniae, 602, Klebsiella pneumoniae 602; read-out: Minimum Inhibitory Concentration. How it is done:
as §1

The test system of a further experiment is Proteus vulgaris HX 19. The experiment can be described thus: Minimum Inhibitory Concentration, Proteus vulgaris HX 19. The settings on record: HX19; Proteus vulgaris HX 19; read-out: Minimum Inhibitory Concentration. On the procedure:
as §1

In experiment [5] the test system is Pseudomonas aeruginosa 104. The experiment can be described thus: Minimum Inhibitory Concentration, Pseudomonas aeruginosa 104. To be noted: Pseudomonas aeruginosa 104; read-out: Minimum Inhibitory Concentration. On the procedure:
as §1

Each structure is given as a SMILES string. Values after ≈ are worked out from the molar mass of the structure shown.

For the compound `Cn1nnnc1SCC1=C(C(=O)O)N2C(=O)C(NC(=O)C(NC(=O)c3cnc4cncnc4c3O)c3cccc(N)c3)C2SC1` (centres unmarked) [Example 72], the MIC was 12.5 µg/mL (≈ 19.2 µM) in experiment [1]; 6.25 µg/mL (≈ 9.62 µM) in experiment [2]; 50 µg/mL (≈ 77 µM) in the experiment on Serratia No. 72; 0.78 µg/mL (≈ 1.2 µM) in experiment [3]; 3.13 µg/mL (≈ 4.82 µM) in the experiment on Escherichia coli NIHJ; 6.25 µg/mL (≈ 9.62 µM) in experiment [4]. For the same compound, the MIC in the experiment with Proteus vulgaris HX 19 amounted to 0.2 µg/mL (≈ 0.308 µM); in experiment [5], 6.25 µg/mL (≈ 9.62 µM).

For the compound `CSc1ncc2c(O)c(C(=O)NC(C(=O)NC3C(=O)N4C(C(=O)O)=C(CSc5cnn[nH]5)CSC34)c3cccc(N)c3)cnc2n1` (centres unmarked) [Example 73], the MIC in experiment [1] was 6.25 µg/mL (≈ 9.18 µM); in experiment [2], 6.25 µg/mL (≈ 9.18 µM); in the experiment with Serratia No. 72, 25 µg/mL (≈ 36.7 µM); in experiment [3] it was 0.78 µg/mL (≈ 1.15 µM); with Escherichia coli NIHJ it was 6.25 µg/mL (≈ 9.18 µM); in experiment [4], 3.13 µg/mL (≈ 4.6 µM). The MIC came to 0.2 µg/mL (≈ 0.294 µM) in the experiment on Proteus vulgaris HX 19 and 6.25 µg/mL (≈ 9.18 µM) in experiment [5].

Take `CN(C)c1ccc2ncc(C(=O)NC(C(=O)NC3C(=O)N4C(C(=O)O)=C(CSc5nnnn5C)CSC34)c3cccc(N)c3)c(O)c2n1` (centres unmarked) [Example 74]: the MIC came out at 6.25 µg/mL (≈ 9.03 µM) in experiment [1]; 6.25 µg/mL (≈ 9.03 µM) in experiment [2]; 12.5 µg/mL (≈ 18.1 µM) against Serratia No. 72; 0.78 µg/mL (≈ 1.13 µM) in experiment [3]; 1.56 µg/mL (≈ 2.26 µM) with Escherichia coli NIHJ; 3.13 µg/mL (≈ 4.52 µM) in experiment [4]. The MIC in the experiment with Proteus vulgaris HX 19 was found to be 0.1 µg/mL (≈ 0.145 µM); in experiment [5], 3.13 µg/mL (≈ 4.52 µM).

As for `Cc1nnc(SCC2=C(C(=O)O)N3C(=O)C(NC(=O)C(NC(=O)c4cnc5sccc5c4O)c4cccc(N)c4)C3SC2)s1` (centres unmarked) [Example 75], the MIC in experiment [1] came to 12.5 µg/mL (≈ 18.7 µM); in experiment [2], 12.5 µg/mL (≈ 18.7 µM); against Serratia No. 72 it was 25 µg/mL (≈ 37.3 µM); in experiment [3], 1.56 µg/mL (≈ 2.33 µM); in the experiment with Escherichia coli NIHJ, 6.25 µg/mL (≈ 9.33 µM); in experiment [4], 3.13 µg/mL (≈ 4.67 µM). For the same compound, the MIC was 0.39 µg/mL (≈ 0.582 µM) with Proteus vulgaris HX 19 and 6.25 µg/mL (≈ 9.33 µM) in experiment [5].

For `Cc1nnc(SCC2=C(C(=O)O)N3C(=O)C(NC(=O)C(NC(=O)c4cnc5c(O)ccnc5c4O)c4cccc(N)c4)C3SC2)s1` (centres unmarked) [Example 76], the MIC in experiment [1] amounted to 3.13 µg/mL (≈ 4.6 µM); in experiment [2], 6.25 µg/mL (≈ 9.18 µM); against Serratia No. 72, 12.5 µg/mL (≈ 18.4 µM); in experiment [3] it was 0.78 µg/mL (≈ 1.15 µM); with Escherichia coli NIHJ, 3.13 µg/mL (≈ 4.6 µM); in experiment [4] it was 3.13 µg/mL (≈ 4.6 µM). The values for the MIC (with Proteus vulgaris HX 19; in experiment [5]) were 0.2 µg/mL (≈ 0.294 µM) and 3.13 µg/mL (≈ 4.6 µM), respectively.

Regarding `Cn1nnnc1SCC1=C(C(=O)O)N2C(=O)C(NC(=O)C(NC(=O)c3cnc4ccc(O)nc4c3O)c3cccc(N)c3)C2SC1` (centres unmarked) [Example 77], the MIC stood at 3.13 µg/mL (≈ 4.71 µM) in experiment [1]; 6.25 µg/mL (≈ 9.4 µM) in experiment [2]; 12.5 µg/mL (≈ 18.8 µM) against Serratia No. 72; 0.78 µg/mL (≈ 1.17 µM) in experiment [3]; 3.13 µg/mL (≈ 4.71 µM) with Escherichia coli NIHJ; 3.13 µg/mL (≈ 4.71 µM) in experiment [4]. In addition, the MIC stood at 0.1 µg/mL (≈ 0.15 µM) with Proteus vulgaris HX 19 and 3.13 µg/mL (≈ 4.71 µM) in experiment [5].

As for `CNc1nnc(SCC2=C(C(=O)O)N3C(=O)C(NC(=O)C(NC(=O)c4cnc5cccnc5c4O)c4cccc(N)c4)C3SC2)s1` (centres unmarked) [Example 78], the MIC in experiment [1] is 6.25 µg/mL (≈ 9.19 µM); in experiment [2] it was 6.25 µg/mL (≈ 9.19 µM); with Serratia No. 72, 12.5 µg/mL (≈ 18.4 µM); in experiment [3], 0.78 µg/mL (≈ 1.15 µM); in the experiment on Escherichia coli NIHJ it was 3.13 µg/mL (≈ 4.6 µM); in experiment [4], 3.13 µg/mL (≈ 4.6 µM). In addition, the MIC with Proteus vulgaris HX 19 came out at 0.2 µg/mL (≈ 0.294 µM); in experiment [5] it was 3.13 µg/mL (≈ 4.6 µM).

Regarding `NCc1nnc(SCC2=C(C(=O)O)N3C(=O)C(NC(=O)C(NC(=O)c4cnc5cccnc5c4O)c4cccc(N)c4)C3SC2)s1` (centres unmarked) [Example 79], the MIC in experiment [1] stood at 6.25 µg/mL (≈ 9.19 µM); in experiment [2], 12.5 µg/mL (≈ 18.4 µM); against Serratia No. 72, 12.5 µg/mL (≈ 18.4 µM); in experiment [3], 0.78 µg/mL (≈ 1.15 µM); with Escherichia coli NIHJ, 6.25 µg/mL (≈ 9.19 µM); in experiment [4], 3.13 µg/mL (≈ 4.6 µM). Besides, the MIC with Proteus vulgaris HX 19 was 0.2 µg/mL (≈ 0.294 µM); in experiment [5] it was 3.13 µg/mL (≈ 4.6 µM).

Consider `Nc1cccc(C(NC(=O)c2cnc3cccnc3c2O)C(=O)NC2C(=O)N3C(C(=O)O)=C(CSc4n[nH]c(=O)s4)CSC23)c1` (centres unmarked) [Example 80], for which the MIC turned out to be 3.13 µg/mL (≈ 4.69 µM) in experiment [1]; 6.25 µg/mL (≈ 9.37 µM) in experiment [2]; 12.5 µg/mL (≈ 18.7 µM) against Serratia No. 72; 0.78 µg/mL (≈ 1.17 µM) in experiment [3]; 3.13 µg/mL (≈ 4.69 µM) in the experiment on Escherichia coli NIHJ; 3.13 µg/mL (≈ 4.69 µM) in experiment [4]. Moreover, the figures for the MIC (in the experiment on Proteus vulgaris HX 19; in experiment [5]) were 0.2 µg/mL (≈ 0.3 µM) and 3.13 µg/mL (≈ 4.69 µM), respectively.

For `Nc1ccc(C(NC(=O)c2cnc3cccnc3c2O)C(=O)NC2C(=O)N3C(C(=O)O)=C(CSc4nnc(CO)s4)CSC23)cc1` (centres unmarked) [Example 81], the MIC in experiment [1] worked out at 3.13 µg/mL (≈ 4.6 µM); in experiment [2] it was 6.25 µg/mL (≈ 9.18 µM); against Serratia No. 72, 12.5 µg/mL (≈ 18.4 µM); in experiment [3] it was 1.56 µg/mL (≈ 2.29 µM); in the experiment with Escherichia coli NIHJ it was 1.56 µg/mL (≈ 2.29 µM); in experiment [4] it was 3.13 µg/mL (≈ 4.6 µM). Also, the MIC with Proteus vulgaris HX 19 was 0.1 µg/mL (≈ 0.147 µM); in experiment [5], 3.13 µg/mL (≈ 4.6 µM).
